Results reported in patent US8288375B2, “Fungicidal bicyclic pyrazoles” (E.I. du Pont de Nemours and Company, priority 2007, dated 2012).
Marks after values point to notes of the source that are not given here.

Key:
Type in all cases: in vivo
Fusarium graminearum = assay: whole plant or invertebrate
Septoria nodorum = assay: Test D: wheat glume blotch, test suspension sprayed on wheat seedlings, disease rating; conditions: 200 ppm test suspension
[1] = system: Colletotrichum orbiculare; assay: Test F: cucumber Colletotrichum anthracnose, test suspension sprayed on cucumber seedlings, disease rating; conditions: for Test F disease control rating: 200 ppm test suspension
Phytophthora infestans = assay: whole plant or invertebrate
[2] = system: Puccinia recondite f sp. tritici; assay: Test B: wheat leaf rust, test suspension sprayed on wheat seedlings, disease rating;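 also: 200 ppm unless marked * meaning 40 ppm or ** meaning 10 ppm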
Rhizoctonia oryzae = assay: Test I: turf brown patch, test suspension sprayed on creeping bent grass seedlings, disease rating; conditions: 200 ppm test suspension
[3] = system: Erysiphe graminis f. sp. tritici; assay: Test A: wheat powdery mildew, test suspension sprayed on wheat seedlings, disease rating; conditions: 200 ppm test suspension, 100 = 100% disease control, 0 = no control
Botrytis cinerea = assay: Test H: tomato Botrytis, test suspension sprayed on tomato seedlings, disease rating; conditions: 200 ppm test suspension
Alternaria solani = assay: Test G: tomato early blight, test suspension sprayed on seedlings, disease rating; conditions: for Test G disease control rating: 40 ppm test suspension (*);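 as to all read-outs here: 200 ppm unless marked * meaning 40 ppm or ** meaning 10 ppm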
Pythium aphanidermatum = assay: Test L: bluegrass pythium blight, test suspension sprayed on bluegrass seedlings, disease rating;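 also: 200 ppm unless marked * meaning 40 ppm or ** meaning 10 ppm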
Septoria tritici = assay: Test E: wheat leaf blotch, test suspension sprayed on wheat seedlings, disease rating; conditions: for Test E disease control rating: 40 ppm test suspension (*);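 as to all read-outs here: 200 ppm unless marked * meaning 40 ppm or ** meaning 10 ppm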
Plasmopara viticola = assay: Test K: grape downy mildew, grape seedlings inoculated and then sprayed, disease rating; conditions: 200 ppm test suspension

Row | Compound | Test C disease control rating (Fusarium graminearum; 40 ppm test suspension (*)) | Test D disease control rating (Septoria nodorum) | Test F disease control rating [1] | Test J disease control rating (Phytophthora infestans; 40 ppm test suspension (*)) | Test B disease control rating ([2]; 40 ppm test suspension (*)) | Test I disease control rating (Rhizoctonia oryzae) | Test A disease control rating [3] | Test H disease control rating (Botrytis cinerea) | Test G disease control rating (Alternaria solani) | Test L disease control rating (Pythium aphanidermatum; 40 ppm test suspension (*)) | Test E disease control rating (Septoria tritici) | Test C disease control rating (Fusarium graminearum; 200 ppm test suspension) | Test J disease control rating (Phytophthora infestans; 200 ppm test suspension) | Test B disease control rating ([2]; 200 ppm test suspension) | Test K disease control rating (Plasmopara viticola) | Test L disease control rating (Pythium aphanidermatum; 200 ppm test suspension) | further results
1 | CC(=O)N1CCCc2c(-c3ccnc(NC4CC4)n3)c(-c3ccc(F)cc3)nn21 [Compound 134, 1-[3-[2-(cyclopropylamino)-4-pyrimidinyl]-2-(4-fluorophenyl)-5,6-dihydropyrazolo[1,5-b]pyridazin-7(4H)-yl]ethanone] |  |  |  |  |  |  |  |  |  |  |  |  |  |  |  |  | pest or weed control at 40 ppm (Fusarium graminearum; Fusarium graminearum, in Triticum aestivum, 192 h, read-out: Test C disease control rating): 84%; pest or weed control at 200 ppm (Septoria nodorum; Parastagonospora nodorum, 216 h): 96%; pest or weed control at 40 ppm ([1]; Colletotrichum orbiculare, 144 h, 40 ppm test suspension (*)): 99%; pest or weed control at 10 ppm (Phytophthora infestans; Phytophthora infestans, in Solanum lycopersicum, 120 h, read-out: Test J disease control rating): 90%; pest or weed control at 40 ppm ([2]; Puccinia, 192 h, 40 ppm test suspension (*)): 85%; pest or weed control at 200 ppm (Rhizoctonia oryzae; Waitea circinata, in Agrostis stolonifera, 120 h): 24%; pest or weed control at 200 ppm ([3]; Blumeria graminis, 192 h): 91%; pest or weed control at 200 ppm (Botrytis cinerea; Botrytis cinerea, 120 h): 53%; pest or weed control at 10 ppm (Alternaria solani; Alternaria solani, 168 h, 10 ppm test suspension (**)): 98%; pest or weed control at 40 ppm (Pythium aphanidermatum; Pythium aphanidermatum, 120 h, 40 ppm test suspension (*)): 100%; pest or weed control at 10 ppm (Septoria tritici; Zymoseptoria tritici, 504 h, 10 ppm test suspension (**)): 77%
2 | CC(C)Nc1nccc(-c2c(-c3ccc(F)cc3)nn3c2CCCN3)n1 [Compound 136] | 77* % | 97% | 0% | 57* % | 92* % | 0% | 0% | 41% | 99* % | 100* % | 28* % |  |  |  |  |  | 
3 | C=CCN1CNCc2c(-c3ccnc(NC4CC4)n3)c(-c3ccc(F)cc3)nn21 [Compound 137] | 69* % | 92% | 0% | 53* % | 0* % | 0% | 86% | 0% | 99* % | 99* % | 73* % |  |  |  |  |  | 
4 | CCC(C)CNc1nccc(-c2c(-c3ccc(F)cc3)nn3c2CCCC3)n1 (stereo not shown) [compound 6] |  | 0% | 0% |  |  | 0% | 0% | 0% |  |  |  | 100% | 0% | 73% | 0% | 0% | 
5 | Nc1nccc(-c2c(-c3ccc(F)cc3)nn3c2CCCC3)n1 [compound 10] |  | 87% | 0% |  |  | 0% | 90% | 63% |  |  |  | 99% | 64% | 99% | 0% | 42% | 
6 | CNc1nccc(-c2c(-c3ccc(F)cc3)nn3c2CCCC3)n1 [compound 13] |  | 97% | 31% |  |  | 77% | 98% | 29% |  |  |  | 100% | 97% | 99% | 0% | 100% | 
7 | C=CCNc1nccc(-c2c(-c3ccc(F)cc3)nn3c2CCCC3)n1 [compound 15] |  | 98% | 17% |  |  | 0% | 86% | 92% |  |  |  | 100% | 97% | 99% | 0% | 100% | 
8 | NCCNc1nccc(-c2c(-c3ccc(F)cc3)nn3c2CCCC3)n1 [compound 16] |  | 0% | 0% |  |  | 0% | 20% | 19% |  |  |  | 99% | 91% | 99% | 0% | 70% | 
9 | C#CCNc1nccc(-c2c(-c3ccc(F)cc3)nn3c2CCCC3)n1 [compound 17] |  | 98% | 77% |  |  | 0% | 64% | 97% |  |  |  | 100% | 100% | 99% | 86% | 100% | 
10 | CN(N)c1nccc(-c2c(-c3ccc(F)cc3)nn3c2CCCC3)n1 [compound 70] | 0* % | 90% | 91% | 53* % | 0* % | 9% | 83% | 29% | 46* % | 98* % | 84* % |  |  |  |  |  | 
11 | CC(CO)Nc1nccc(-c2c(-c3ccc(F)cc3)nn3c2CCCC3)n1.Cl (stereo not shown) [compound 72] | 0* % | 82% | 0% | 99* % | 94* % | 0% | 0% | 77% | 98* % | 100* % | 47* % |  |  |  |  |  | 
12 | CCCC(CO)Nc1nccc(-c2c(-c3ccc(F)cc3)nn3c2CCCC3)n1 (stereo not shown) [compound 73] | 0* % | 78% | 0% | 17* % | 85* % | 0% | 0% | 0% | 0* % | 98* % | 84* % |  |  |  |  |  | 
13 | CC(C)C(CO)Nc1nccc(-c2c(-c3ccc(F)cc3)nn3c2CCCC3)n1 (stereo not shown) [compound 74] | 10* % | 60% | 0% | 0* % | 91* % | 0% | 20% | 0% | 0* % | 93* % | 86* % |  |  |  |  |  | 
14 | Fc1ccc(-c2nn3c(c2-c2ccnc(NOCC4CCC4)n2)CCCC3)cc1 [compound 75] | 0* % | 0% | 0% | 0* % | 0* % | 0% | 31% | 0% | 0* % | 0* % | 92* % |  |  |  |  |  | 
15 | COCC(C)Nc1nccc(-c2c(-c3ccc(OC)cc3)nn3c2CCC3)n1 (stereo not shown) [compound 86] |  | 51% | 0% |  |  | 0% | 0% | 0% |  |  |  | 0% | 94% |  | 0% | 99% | 
16 | CCC(C)Nc1nccc(-c2c(-c3ccc(F)cc3F)nn3c2CCC3)n1 (stereo not shown) [compound 87] |  | 78% | 0% |  |  | 0% | 0% | 0% |  |  |  | 99% | 94% |  | 0% | 99% | 
17 | COCC(C)Nc1nccc(-c2c(-c3ccc(F)cc3F)nn3c2CCC3)n1 (stereo not shown) [compound 88] |  | 60% | 0% |  |  | 0% | 0% | 21% |  |  |  | 100% | 100% |  | 0% | 99% | 
18 | COCC(C)Nc1nccc(-c2c(-c3ccc(C)cc3)nn3c2CCC3)n1 (stereo not shown) [compound 89] |  | 60% | 0% |  |  | 0% | 21% | 8% |  |  |  | 100% | 0% |  | 0% | 99% | 
